US9422235B2, “Sulfonamide derivatives with therapeutic indications” (Pharmos Corporation, priority 2006, dated 2016)
Like-named read-outs stand apart in the source and are kept apart here.

Columns and labels:
human CB2 receptor = human CB2 receptor (Homo sapiens (Human), UniProt P34972); assay: [35S]GTPγS-binding assay, functional activity at the human CB2 receptor; format: biochemical; conditions: Cell line C2-4
Experimental: Functional activity of compounds of the invention toward the cannabinoid receptors was determined by stimulation of [^35S]-GTPγS binding using membranes from HEK-293 cells expressing the hCB1 receptor and membranes expressing the hCB2 receptor derived from either Sf9 (PerkinElmer) or from HEK-293 cells. Activities were compared to that of the known cannabinoid full agonist CP55940 (Alexis). The purpose of this experiment is to determine the potency of the compounds of the invention as agonists or antagonists toward each of the receptor tested.
[^35]-GTPγS binding reactions were performed at 30° C. in 96-well plates containing 5-10 μg membrane protein suspended in 0.1 ml binding buffer (20 mM HEPES-NaOH, pH 7.4, 5 mM MgCl2, 100 mM NaCt, 0.2% (w/v) bovine serum albumin) supplemented with 50 μM GDP and 0.06 nM-10 μM of the compound being tested. Binding was initiated by the addition of [^35S]GTPγS (0.3 nM final concentration). Incubations were performed for 90 minutes and were terminated by filtration on GF/C filter plates (PerkinElmer). Filters were washed ten times with ice-cold wash buffer (20 mM HEPES-NaOH, pH 7.4, 10 mM sodium pyrophosphate). Non-specific binding was measured in the presence of 15 μM GTPγS.
Assays were performed in duplicates. Data was analyzed by plotting on the X axis the log concentration against percent of specific [^35S]GTPγS binding out of basal [^35S]GTPγS binding on the Y axis, non-linear regression is then performed using GraphPad Prism, version 3.0 (GraphPad, San Diego, Calif.) to calculate the EC50 and Emax of the compound. The EC50 value represents the concentration at which there is 50% [^35S]GTPγS binding and the Emax value the upper plateau of the curve.
CP55940 is a full agonist of the human and rat CB2 receptors. […] Full or partial agonism at the receptor was determined relative to the Emax value of CP55940.

Male Sprague Dawley rats [1] = assay: Thermal analgesic activity in CFA-induced inflammatory acute pain (Plantar test); format: in vivo, rat; conditions: one hour post daily administration, third day of treatment
Experimental: The thermal analgesic effect induced by compounds of the present invention on inflammatory acute pain was assessed. Inflammatory pain and paw edema were induced by intraplantar injection of 50% Complete Freund's Adjuvant (CFA) suspension in the animal hind paw.
Male Sprague Dawley rats (average body weight 200 g, Harlan, Israel) were transiently sedated by placement on dry ice for the duration of the injections. Rats were injected subcutaneously, in the subplantar region of one (right) paw with 0.15 ml of 50% w/v CFA in sterile saline. […] Test compounds were administered i.p. at initial single dose of 10-60 mg/kg (depending on the test compound), and volume dose of 5 ml/kg, 24 hours post CFA injection. Vehicle and Celecoxib treated animals were used as controls. Each treatment group comprised at least six animals.
Prior to, 48 hours post induction of inflammatory pain and one hour after daily drug administration, the animals reaction to pain stimuli was tested by thermal stimulus. The thermal analgesia was assessed using a Plantar test (Ugo Basile). At the end of the study, animals were euthanized.
Results, expressed as percent of baseline value (% reversal) or withdrawal latency, are depicted in FIGS. 9 and 10. […] Results are expressed as mean±SEM for each treatment group and the differences among those groups are analyzed by T-test. […]

female BALB/c mice = assay: Dextran Sulfate Salt (DSS)-induced acute colitis; format: in vivo, mouse; conditions: for % Survival / Clinical score / Percentage change in body weight: i.p.; for efficacy in DSS-induced colitis (weight loss, clinical signs or gross pathology): administered intraperitoneally
Description: In order to test the activity of compounds of the invention in an animal model of inflammatory bowel disease, female BALB/c mice 9-12 week old (Harlan, Israel) were used for Dextran Sulfate Salt (DSS)-induced acute colitis studies. Mice (ten per treatment group) were provided with a solution of tap water containing 5% DSS (MW. 36000-50000; MP Biomedicals, LLC) ad libitum over an 8 day period. The DSS solution was replenished every other day and switched to tap water at day 8. Body weight was measured daily. The clinical scores combined both macroscopic (diarrhea, body weight, mortality) as well as microscopic (pathological) scores. Diarrhea score in the studies for each animal represented the daily summary of stool consistency (scored as: 0, normal; 1, soft but still formed; 2, very soft; 3, diarrhea) and the presence of blood in stool (scored: 0, None; 1, visible blood traces in stool; 2, signs of blood; 3, rectal bleeding). At the end of experiment animals were euthanized and their colons are examined for signs of pathological damage. The pathological scores, colon length and weight were determined from the cecum to the anus (scored: 0, normal; 1, slight inflammation; 2, moderate inflammation and/or edema; 3, heavy inflammation and/or ulceration and/or edema).
Two compounds were tested in DSS-induced colitis in mice, compounds 4 and 58. […] Results are expressed as mean ± SEM for each treatment group and the differences among those groups are analyzed by T-test. Two crosshatches indicate a p value below 0.01 and three indicate a p value below 0.001. Asterisks denote statistical significant weight loss relative to animal weight in the beginning of the experiment.
Alternatively, compound 58 (30 mg/kg) was administered orally from the first day of DSS administration (day 1) until the end of the experiment (day 10).

Male Sprague Dawley rats [2] = assay: Chronic constriction induced (CCI) model of neuropathic pain, mechanical hyperalgesia; format: in vivo, rat; conditions: 10 mg/kg, s.i.d, 14 days
Experimental: The analgesic activity of compounds of the invention is assessed in a chronic constriction induced (CCI) model of neuropathic pain. A peripheral neuropathy is induced in the left hind limb of rats following a chronic constriction of the sciatic nerve according to Bennet et al. (Bennet, G. J. & Xie, Y-K., Pain 33: 87-107, 1988). The development of mechanical hyperalgesia is monitored using an established behavioral test analgesy meter or dynamic planter aesthesiometer.
Pre-surgery baseline values are ascertained as the mean of 2 pre-surgery values. Once the baseline values are established, the animals are surgically prepared by constricting the left sciatic nerve with 4-0 chromic catgut loose ligatures. […]
The design is randomized, performed in a masked fashion as to whether drug or vehicle is being given. […] On the testing day, 24 hours after administration period lapsed, the differences between ipsilateral and contralateral hind leg thresholds were measured in grams using the Dynamic planter aesthesiometer or analgesy meter (Ugo basile).
Results are expressed as mean±SEM for each treatment group and the differences among those groups are analyzed by analysis of variance (ANOVA) followed by post-hoc analysis using Tukey's test. […]

Male Sprague Dawley rats [3] = assay: CFA-induced acute inflammatory pain, mechanical stimulus (Dynamic Plantar Aesthesiometer); format: in vivo, rat; conditions: three hours post administration
Experimental: Acute Inflammatory Pain. The purpose of this study is to test the analgesic activity of the compounds in inflammatory pain. Inflammatory pain is nociceptive in nature, wherein the pain sensation is often perceived for longer period than in acute pain. In the present model the duration of the preventive activity of compounds against inflammatory acute pain was assessed for up to about three hours post-drug administration. Inflammatory pain and paw edema were induced by intraplantar injection of 50% Complete Freund's Adjuvant (CFA) suspension in the animal hind paw. […]
Prior to, 24 hours post induction of inflammatory pain and one and three hours after drug administration, the animals reactions to pain stimuli were tested by mechanical stimulus. The mechanical (tactile) analgesia was assessed using a Dynamic Plantar Aesthesiomether (Ugo Basile Model 73400-002). […]
The results are presented as the force needed for hind paw withdrawal before surgery, 24 hours post surgery and 1 and 3 hours post drug administration. Results are expressed as mean±SEM for each treatment group and the differences among those groups are analyzed by analysis of variance (ANOVA). […]
The baseline values for the force to be applied for left hind paw withdrawal following mechanical stimuli is about 30 gram before inflammatory pain induction. […] Results, expressed as Force measured in grams, are depicted in FIG. 3.

[4] = Emax of compound divided by Emax of CP55940
[5] = upper plateau of [35S]GTPγS binding curve

human CB2 receptor, sequence (P34972 whole entry): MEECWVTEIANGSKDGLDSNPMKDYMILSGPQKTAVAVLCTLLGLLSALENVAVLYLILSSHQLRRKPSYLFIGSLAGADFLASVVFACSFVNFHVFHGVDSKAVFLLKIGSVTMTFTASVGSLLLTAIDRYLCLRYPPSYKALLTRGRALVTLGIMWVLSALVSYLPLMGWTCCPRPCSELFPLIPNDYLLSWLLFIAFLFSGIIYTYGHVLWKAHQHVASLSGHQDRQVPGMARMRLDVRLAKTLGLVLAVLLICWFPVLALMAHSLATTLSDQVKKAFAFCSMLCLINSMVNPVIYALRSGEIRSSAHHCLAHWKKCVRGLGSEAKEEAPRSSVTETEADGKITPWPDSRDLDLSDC

Question: How did the “% Activity (relative to CP55,940)” value (human CB2 receptor; [4]) turn out when “N-Cyclopropylmethyl-4-(piperidin-1-ylamino)-2-trifluoromethyl-benzenesulfonamide [Compound 94]” was run?
Answer: Its value is 30%.

Question: What about the “Emax (%)” value (human CB2 receptor; [5]) of the same compound?
Answer: The value was 20%.

Question: What about the “reversal of thermal pain threshold (percent of baseline value, % reversal)” value (Male Sprague Dawley rats [1]; 60 mg/kg i.p.) of the same compound?
Answer: Its value is “reversed the pain threshold”.

Question: Which results are given for “4-(Bicyclo[2.2.1]hept-2-ylamino)-N-cyclopropylmethyl-2-trifluoromethyl-benzenesulfonamide [Compound 58]”?
Answer: % Activity (relative to CP55,940) (human CB2 receptor; [4]): 40%; Emax (%) (human CB2 receptor; [5]): 29%; reversal of thermal pain threshold (withdrawal latency) (Male Sprague Dawley rats [1]; 30 mg/kg i.p.): reversed the pain threshold; % Survival (female BALB/c mice; 10 mg/kg): 100%; Clinical score (female BALB/c mice; 10 mg/kg): 4.33 ± 0.22; Percentage change in body weight (female BALB/c mice; 10 mg/kg): −12.9 ± 2.6 %; mortality (female BALB/c mice; 30 mg/kg orally, day 1 to day 10): not observed; clinical score over time (female BALB/c mice; 30 mg/kg orally, day 1 to day 10, from day 8 until end of experiment): statistical significant amelioration; pathological score (female BALB/c mice; 30 mg/kg orally, day 1 to day 10, not statistically significant versus vehicle): 1.9±0.5; % Survival (female BALB/c mice; 30 mg/kg): 100%; Clinical score (female BALB/c mice; 30 mg/kg): 4.58 ± 0.2; Percentage change in body weight (female BALB/c mice; 30 mg/kg): −13.9 ± 2.3 %; efficacy in DSS-induced colitis (weight loss, clinical signs or gross pathology) (female BALB/c mice): modest efficacy

Question: Which Emax (human CB2 receptor; Emax of compound divided by Emax of CP55940, read-out: % Activity (relative to CP55,940)) does the source give for `COc1cc(Nc2ccc(S(=O)(=O)NCC3CC3)c(C(F)(F)F)c2)cc(OC)c1` [Compound 4, N-Cyclopropylmethyl-4-(3,5-dimethoxy-phenylamino)-2-trifluoromethyl-benzenesulfonamide] here?
Answer: Its Emax is 51%.

Question: What about the Emax (human CB2 receptor; upper plateau of [35S]GTPγS binding curve, read-out: Emax (%)) of the same compound?
Answer: The Emax was 26%.

Question: What about the “reduction of the CCI induced hyperalgesia” value (Male Sprague Dawley rats [2]) of the same compound?
Answer: The value was “significant reduction”.

Question: And the “reversal of pain threshold of injured paw” value (Male Sprague Dawley rats [3]; 10 mg/kg i.p.)?
Answer: The value was 50%.

Question: And the “reversal of pain threshold of injured paw” value (Male Sprague Dawley rats [3]; 30 mg/kg i.p.)?
Answer: Its value is 100%.

Question: What about the “% Survival” value (female BALB/c mice; 20 mg/kg) of the same compound?
Answer: Its value is 90%.

Question: And the Clinical score (female BALB/c mice; 20 mg/kg)?
Answer: The Clinical score was 3.4 ± 0.7.

Question: And the “Percentage change in body weight” value (female BALB/c mice; 20 mg/kg)?
Answer: Its value is −9.6 ± 1.59 %.

Question: And the “% Survival” value (female BALB/c mice; 40 mg/kg)?
Answer: The value was 100%.

Question: What about the Clinical score (female BALB/c mice; 40 mg/kg) of the same compound?
Answer: Its Clinical score is 3.1 ± 0.6.

Question: What about the “Percentage change in body weight” value (female BALB/c mice; 40 mg/kg) of the same compound?
Answer: Its value is −5 ± 2.3 %.

Question: What about the “efficacy in DSS-induced colitis (weight loss, clinical signs or gross pathology)” value (female BALB/c mice) of the same compound?
Answer: The value was “modest efficacy”.
